The values that follow come from PubChem BioAssay (NCI).

Values joined by “and” are separate entries in the source; they are usually repeats but may differ in a detail not shown here. Identical values can stand only once.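 A five-concentration, 48-hour dose response in 96-well plates underlies each endpoint, interpolated linearly between surrounding concentrations. GI50 = concentration required for 50% inhibition of growth. TGI marks complete inhibition of growth.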

Among the test systems are NCI-H226 lung; IGROV1 ovarian; UACC-62 melanoma; UO-31 renal; OVCAR-8 ovarian; HCC-2998 colon; DU-145 prostate; PC-3 prostate; T-47D breast; 786-0 renal.
Experiment in all cases: inhibition of tumour cell growth, NCI panel, 48 h

As to `Cc1c(CN2CCC(Nc3ncnc4sc(CC(F)(F)F)cc34)CC2)ccc2c1cc(C#N)n2Cc1cn[nH]c1`, the GI50 is 7.58 µM and 4.31 µM in the experiment with NCI-H226 lung; 5.23 µM and 23.8 µM in the experiment with IGROV1 ovarian; 6.53 µM and 8.73 µM in the experiment on UACC-62 melanoma; 2.25 µM and 2.46 µM in the experiment on UO-31 renal; 5.07 µM and 6.1 µM in the experiment on OVCAR-8 ovarian; 1.86 µM and 2.8 µM in the experiment with HCC-2998 colon. In addition, the GI50 with DU-145 prostate was 10.3 µM; with PC-3 prostate, 2.31 µM and 2.33 µM; in the experiment on T-47D breast, 0.897 µM and 1.06 µM; in the experiment with 786-0 renal, 4.92 µM and 4.44 µM. Further, the TGI was 40.2 µM and 36.9 µM in the experiment with NCI-H226 lung; 26.1 µM and > 100 µM in the experiment on IGROV1 ovarian; 24.9 µM and > 44.3 µM in the experiment with UACC-62 melanoma; 20.1 µM and > 41.2 µM in the experiment with UO-31 renal; 21.8 µM in the experiment on OVCAR-8 ovarian; 4.38 µM and 10.9 µM in the experiment with HCC-2998 colon. Also, the TGI in the experiment on DU-145 prostate is 23.9 µM and > 40.5 µM; in the experiment on PC-3 prostate it was 18.9 µM and > 32.7 µM; in the experiment on T-47D breast it was 16.9 µM; with 786-0 renal, 21.9 µM.
Take `C=C1C(=O)O[C@@H]2C[C@@H](C)[C@@H]3[C@@H](OC4OC(COC(C)=O)C(O)C(O)C4O)CC(=O)[C@@]3(C)C[C@H]12` (stereo partly drawn): the TGI in the experiment on NCI-H226 lung turned out to be 26.1 µM; in the experiment with IGROV1 ovarian, 6.2 µM; in the experiment with UACC-62 melanoma, 2.98 µM; in the experiment with UO-31 renal, 3.38 µM; with OVCAR-8 ovarian it was 3.7 µM; with HCC-2998 colon it was 3.14 µM. For the same compound, the TGI in the experiment with DU-145 prostate is 21.5 µM; in the experiment with PC-3 prostate, 23.7 µM; in the experiment on T-47D breast it was 8.89 µM; in the experiment on 786-0 renal, 0.883 µM.
Regarding `Cc1cc2c(C(N)=O)cccc2n1-c1nc2c(c(NCc3ccccc3)n1)CCCN2`, the GI50 with NCI-H226 lung is 0.158 µM; in the experiment with IGROV1 ovarian, 0.194 µM; with UACC-62 melanoma it was 0.155 µM; in the experiment on UO-31 renal it was 0.215 µM; in the experiment on OVCAR-8 ovarian, 0.182 µM; in the experiment with HCC-2998 colon it was 0.17 µM. For the same compound, the GI50 in the experiment on DU-145 prostate was 0.29 µM; in the experiment with PC-3 prostate, 0.287 µM; in the experiment with T-47D breast, 0.185 µM; in the experiment on 786-0 renal, 0.248 µM. For the same compound, the TGI is 0.332 µM in the experiment on NCI-H226 lung; 0.439 µM in the experiment on IGROV1 ovarian; 0.33 µM with UACC-62 melanoma; 0.474 µM with UO-31 renal; 0.431 µM in the experiment on OVCAR-8 ovarian; 0.325 µM in the experiment on HCC-2998 colon. For the same compound, the TGI in the experiment on DU-145 prostate worked out at 0.783 µM; with PC-3 prostate, 0.825 µM; in the experiment with T-47D breast, 0.431 µM; in the experiment on 786-0 renal, 0.519 µM.
For `Cc1cc(S(=O)(=O)NC#N)c(S/C(=N\Nc2ccc([N+](=O)[O-])cc2)c2ccccc2)cc1Cl`, the GI50 was 16.3 µM in the experiment with NCI-H226 lung; 17.9 µM with IGROV1 ovarian; 21.5 µM with UACC-62 melanoma; 15.5 µM in the experiment on UO-31 renal; 16.8 µM in the experiment on OVCAR-8 ovarian; 17.2 µM with HCC-2998 colon. In addition, the GI50 with DU-145 prostate is 11.7 µM; in the experiment with PC-3 prostate, 21.5 µM; with T-47D breast, more than 100 µM; with 786-0 renal, 33.8 µM. For the same compound, the TGI in the experiment on NCI-H226 lung was 33.1 µM; with IGROV1 ovarian, 39.3 µM; in the experiment with UACC-62 melanoma, 51.8 µM; in the experiment with UO-31 renal it was 36.7 µM; in the experiment with OVCAR-8 ovarian it was 42.8 µM; in the experiment on HCC-2998 colon, 30.9 µM. Besides, the TGI was 24 µM in the experiment on DU-145 prostate, 57.1 µM with PC-3 prostate, more than 100 µM in the experiment on T-47D breast and more than 100 µM in the experiment with 786-0 renal.
Regarding `c1cncc(C(Nc2cccc3cccnc23)Nc2cccc3cccnc23)c1`, the TGI with IGROV1 ovarian, in the experiment on UACC-62 melanoma, with UO-31 renal, in the experiment on OVCAR-8 ovarian, in the experiment on HCC-2998 colon and in the experiment on DU-145 prostate was more than 100 µM throughout. The TGI in the experiment with PC-3 prostate, with T-47D breast and in the experiment with 786-0 renal was more than 100 µM throughout.
With `CCS(=O)(=O)c1ccc(OC)c(Nc2nccc(N(C)c3ccc4c(C)[nH]nc4c3)n2)c1`, the GI50 was 1.85 µM in the experiment on NCI-H226 lung; 3.97 µM in the experiment on IGROV1 ovarian; 6.79 µM in the experiment on UACC-62 melanoma; 2.05 µM in the experiment on UO-31 renal; 7.22 µM in the experiment on OVCAR-8 ovarian; 8.18 µM in the experiment with HCC-2998 colon. Besides, the GI50 in the experiment with DU-145 prostate was 8.45 µM; in the experiment with PC-3 prostate it was 5.46 µM; with T-47D breast, 4.77 µM; in the experiment on 786-0 renal, 5.79 µM. The TGI in the experiment with NCI-H226 lung was more than 21.1 µM; in the experiment on IGROV1 ovarian it was 16.5 µM; with UACC-62 melanoma, 24.5 µM; with UO-31 renal, 10.9 µM; in the experiment with OVCAR-8 ovarian it was more than 22.2 µM; in the experiment with HCC-2998 colon, more than 25 µM. Further, the TGI with DU-145 prostate was more than 25 µM; with PC-3 prostate, 22.1 µM; in the experiment on T-47D breast it was 21.9 µM; with 786-0 renal, 18.4 µM.
Turning to `CCc1oc2ccccc2c1C(=O)c1cc(Br)c(O)c(Br)c1`, the TGI is 50 µM with NCI-H226 lung; more than 100 µM in the experiment on IGROV1 ovarian; 33.6 µM with UACC-62 melanoma; 40.1 µM in the experiment with UO-31 renal; more than 100 µM in the experiment on OVCAR-8 ovarian; more than 100 µM in the experiment on DU-145 prostate. Also, the TGI was 43.6 µM with PC-3 prostate, 53.6 µM with T-47D breast and 55.6 µM in the experiment on 786-0 renal.
Consider `O=C(N/N=C/c1ccc(O)cc1O)c1ccc(Nc2ccnc(C(F)(F)F)c2)cc1`, for which the GI50 is 26.4 µM in the experiment with NCI-H226 lung; 21.6 µM in the experiment with IGROV1 ovarian; 0.0485 µM with UACC-62 melanoma; more than 24.3 µM in the experiment on UO-31 renal; 7.76 µM with OVCAR-8 ovarian; more than 75.2 µM with HCC-2998 colon. The GI50 is 21.9 µM in the experiment on DU-145 prostate, more than 45.1 µM in the experiment with PC-3 prostate, 1.29 µM in the experiment with T-47D breast and 31.2 µM in the experiment on 786-0 renal. The TGI with NCI-H226 lung, with IGROV1 ovarian, with UACC-62 melanoma, in the experiment with UO-31 renal, in the experiment on OVCAR-8 ovarian and in the experiment on HCC-2998 colon was more than 100 µM in each case. The TGI in the experiment with DU-145 prostate, with PC-3 prostate, in the experiment on T-47D breast and in the experiment on 786-0 renal was more than 100 µM each time.
Take `O=C(Nc1ccc2oc(=O)c(C(=O)O)cc2c1)Oc1ccccc1`: the TGI in the experiment on NCI-H226 lung, in the experiment with IGROV1 ovarian, in the experiment with UACC-62 melanoma, with UO-31 renal, in the experiment on OVCAR-8 ovarian and in the experiment with HCC-2998 colon was more than 100 µM each time. In addition, the TGI with DU-145 prostate, in the experiment with PC-3 prostate, in the experiment on T-47D breast and in the experiment with 786-0 renal was more than 100 µM each time.
